ChEMBL document CHEMBL1649504, “Activity of SQ641, a capuramycin analog, in a murine model of tuberculosis” (2009)
In brackets after ≈: the same amount, converted by molar mass.

Tests used:
Type in all cases: functional
[1] = tested on: Mycobacterium tuberculosis; test: Antimycobacterial activity against Mycobacterium tuberculosis
[2] = tested on: Mycobacterium avium; test: Antimycobacterial activity against Mycobacterium avium
[3] = tested on: Mycobacterium tuberculosis; test: Antibacterial activity against Mycobacterium tuberculosis H37Rv infected in C57BL/6 mouse assessed as […] in lung at 5 mg/kg administered for 1 week via oral gavage measured post last dose
[4] = tested on: Mycobacterium tuberculosis; test: Antibacterial activity against Mycobacterium tuberculosis H37Rv infected in C57BL/6 mouse assessed as […] in lung at 50 mg/kg, ip administered 5 times per week measured post last dose; settings: route intraperitoneal
[5] = tested on: Mycobacterium tuberculosis; test: Antibacterial activity against Mycobacterium tuberculosis H37Rv infected in C57BL/6 mouse assessed as […] in lung at 25 mg/kg, iv administered 2 times per week measured post last dose
[6] = tested on: Mycobacterium tuberculosis; test: Antibacterial activity against Mycobacterium tuberculosis H37Rv infected in C57BL/6 mouse assessed as […] in lung at 100 mg/kg, ip administered 5 times per week measured post last dose; settings: route intraperitoneal
[7] = tested on: Mycobacterium tuberculosis; test: Antibacterial activity against Mycobacterium tuberculosis H37Rv infected in C57BL/6 mouse assessed as […] in lung at 50 mg/kg, iv administered 2 times per week measured post last dose

`CCCCCCCCCC(=O)O[C@@H]1[C@H](OC)[C@@H]([C@@H](CC(N)=O)O[C@H]2OC(C(=O)N[C@H]3CCC[C@@H](C)NC3=O)=C[C@@H](O)[C@H]2O)O[C@H]1n1ccc(=O)[nH]c1=O` gave an MIC [1] of 1 mg/L (≈ 1.33 µM), an MIC [2] of 0.016 mg/L (≈ 0.0213 µM) and a log10cfu [3] of 5.1. For the same compound, the log10cfu [4] was 6.7, the log10cfu [5] was 6.1 and the log10cfu [6] was 6.15. For the same compound, the log10cfu [7] was 6.01.
